Experimental data taken from patent publication US20170362210A1, “ANTI-ESTROGENIC COMPOUNDS” (PFIZER INC., priority 2015, published 2017).
Like-named read-outs stand apart in the source and are kept apart here.

What was measured:
[1] = tested on: MCF-7 breast cancer cells; assay: Inhibition of E2-stimulated proliferation of MCF-7 breast cancer cells; assay type: cell-based, human; conditions: 100 pM E2, hormone-depleted medium, 6-8 days
Description: Proliferation of MCF-7 breast cancer cells was measured using a fluorescent DNA binding dye 6-8 days after treatment in triplicate with representative compounds in the presence of 100 pM E2 in hormone-depleted medium. IC50's were calculated from individual experiments as in Example 25.

[2] = tested on: AP activity in ECC-1 cells; assay: Alkaline phosphatase (AP) assay in ECC-1 cells co-treated with 500 pM E2; assay type: cell-based, human; conditions: 3 days
Description: (§1) Method for performing the alkaline phosphatase (AP) assay. ECC-1 cells (American Type Culture Collection, Manassas, Va.) were maintained in RPMI medium plus 10% fetal bovine serum at 37° C. At the beginning of the assay trypsinized cells were resuspended in RPMI medium plus 5% charcoal dextran stripped serum (CDSS, (Hyclone, Logan, Utah)) and plated at a density of 25-50 k cells per well into a 96-well plate for at least 6 hours. Representative compounds were diluted in serum-free medium and added 1:1 to plated cells in replicate wells (2.5% CDSS final). Plates were incubated for 3 days at 37° C. and subsequently frozen at −80° C. to lyse cells after removing the medium. Thawed plates were incubated with a chromogenic substrate of AP, p-nitrophenyl phosphate (Invitrogen, Grand Island, N.Y.), for 40 minutes at 40° C. Absorbances were read at 405 nm using a plate spectrophotometer. AP activity was normalized to 500 pM 17β-estradiol (E2), reported as the maximum activity observed for each individual experiment, regardless of dose.
AP activity was assayed as in Example 28 but cells were co-treated with 500 pM E2.

[3] = tested on: AP activity in ECC-1 cells; assay: Alkaline phosphatase (AP) assay in ECC-1 uterine cells, induction of AP activity; assay type: cell-based, human; conditions: 3 days, normalized to 500 pM E2, maximum activity observed regardless of dose
Description: as §1

ERα = biological target: T1, ERα (Homo sapiens, UniProt P03372); assay: ERα expression in MCF-7 cell lysates (immunoblot); assay type: cell-based; conditions: MCF-7 cells, 100 nM compound, serum-free medium, 24 hours, immunoblot band intensity
T1 construct: ERα expression was detected in MCF-7 cell lysates treated with 100 nM antiestrogens in serum-free medium for 24 hours; endogenous in cells; host or cells: MCF-7
T1 sequence (P03372 1-595): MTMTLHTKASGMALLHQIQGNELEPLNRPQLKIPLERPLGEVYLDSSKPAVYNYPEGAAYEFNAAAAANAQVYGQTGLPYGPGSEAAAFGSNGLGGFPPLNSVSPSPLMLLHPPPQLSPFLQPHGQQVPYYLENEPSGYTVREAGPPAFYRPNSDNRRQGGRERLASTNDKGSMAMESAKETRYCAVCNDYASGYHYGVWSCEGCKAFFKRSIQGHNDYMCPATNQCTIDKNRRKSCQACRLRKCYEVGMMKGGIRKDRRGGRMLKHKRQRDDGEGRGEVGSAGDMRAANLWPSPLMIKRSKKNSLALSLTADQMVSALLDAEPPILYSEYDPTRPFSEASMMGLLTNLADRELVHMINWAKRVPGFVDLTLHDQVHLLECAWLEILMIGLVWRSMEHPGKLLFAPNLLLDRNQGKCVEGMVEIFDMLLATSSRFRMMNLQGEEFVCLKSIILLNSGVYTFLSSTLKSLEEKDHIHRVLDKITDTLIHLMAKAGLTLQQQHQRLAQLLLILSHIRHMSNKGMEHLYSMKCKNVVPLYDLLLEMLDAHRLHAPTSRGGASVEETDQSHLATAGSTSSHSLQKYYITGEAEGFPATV
Description: ERα expression was detected in MCF-7 cell lysates treated with 100 nM antiestrogens in serum-free medium for 24 hours and immunoblotted with an antibody specific to ERα.
Band intensity was normalized relative to vehicle for each individual experiment and listed in Table 3 (Relative change ERα levels (% vehicle)).

[4] = tested on: estrogen-responsive reporter gene (ERE-tk109-Luc) in MCF-7 cells; assay: Inhibition of E2-induced transcription, ERE-tk109-Luc reporter gene in MCF-7 cells; assay type: cell-based, human; conditions: 100 pM 17β-estradiol (E2), 18-22 hours, read-out: IC50, inhibition of E2-induced transcription in breast cells
Description: Representative compounds were tested for their inhibitory activity of estrogen according to the assay methods described in Hodges-Gallagher, L., Valentine, C. V., El Bader, S. and Kushner, P. J. (2007) “Histone Deacetylase Inhibitors Enhance the Efficacy of Hormonal Therapy Agents on Breast Cancer Cells and Blocks Anti-estrogen-Driven Uterine Cell Proliferation” Breast Cancer Res Treat, November; 105(3):297-309. Specifically, an estrogen-responsive reporter gene (ERE-tk109-Luc) was transiently transfected into MCF-7 cells and treated with anti-estrogens in triplicate in the presence of 100 pM 17β-estradiol (E2) for 18-22 hours. Luciferase activity was normalized to activity of E2 alone and IC50's were calculated using the least squares fit method.

[5] = Homo sapiens, MCF7, MCF-7 cells

Compound | IC50 ([1]; MCF-7 cells) | AP activity (% E2), cells co-treated with 500 pM E2 [2] | Induction of AP activity in uterine cells (% E2) [3] | Relative change ERα levels (% vehicle) (ERα) | IC50 ([4]; MCF-7 cells) | IC50 [1, 5] | IC50 [4, 5]
CCCN1CC(Oc2ccc(C3Oc4cc(O)ccc4C(C)=C3c3ccccc3)cc2)C1 (single isomer, unassigned) [Compound 118, 4-methyl-3-phenyl-2-(4-((1-propylazetidin-3-yl)oxy)phenyl)-2H-chromen-7-ol] | 132 nM | 16 % E2 | 104 % E2 | 55 % veh | 254 nM | – | –
CCCN1CC(Cc2ccc(C3Oc4cc(O)ccc4C(C)=C3c3ccc(O)cc3)cc2)C1 (stereo not shown) [Compound 101, 3-(4-hydroxyphenyl)-4-methyl-2-(4-((1-propylazetidin-3-yl)methyl)phenyl)-2H-chromen-7-ol] | – | 8 % E2 | 9 % E2 | 51 % veh | – | 7 nM | 3 nM
CCCN1CC(Oc2ccc(C3Oc4cc(O)ccc4C(C)=C3c3ccc(O)cc3)cc2)C1 (stereo not shown) [Compound 104, 3-(4-hydroxyphenyl)-4-methyl-2-(4-((1-propylazetidin-3-yl)oxy)phenyl)-2H-chromen-7-ol] | – | 4 % E2 | 5 % E2 | 44 % veh | – | 6 nM | 2 nM
CCCN1CC(Oc2ccc(C3Oc4cc(O)ccc4C(C)=C3c3ccccc3C(C)C)cc2)C1 (stereo not shown) [Compound 119, 3-(2-isopropylphenyl)-4-methyl-2-(4-((1-propylazetidin-3-yl)oxy)phenyl)-2H-chromen-7-ol] | – | 18 % E2 | 44 % E2 | 36 % veh | – | 33 nM | 15 nM
CCCN1CC(Oc2ccc(C3Oc4cc(O)ccc4C(C)=C3c3ccccc3Cl)cc2)C1 (stereo not shown) [Compound 120, 3-(2-chlorophenyl)-4-methyl-2-(4-((1-propylazetidin-3-yl)oxy)phenyl)-2H-chromen-7-ol] | – | 14 % E2 | 12 % E2 | 61 % veh | – | 10 nM | 8 nM
